Data taken from US20260083751A1, “ALLOSTERIC MODULATORS OF ANDROGEN RECEPTOR COACTIVATOR RECRUITMENT FOR CRPC THERAPY” (University of Pittsburgh – Of the Commonwealth System of …, priority 2022, published 2026).
“Also recorded” adds a separate entry of the source. Read-outs that look alike come from different tables or passages of the source.

Experiments:
AR = biological target: T1, AR (Homo sapiens, UniProt P10275, T878A); assay: Western blotting cellular thermal shift assay for AR in C4-2 cells; type: cell-based; details: for AR thermal stability at 46° C., compound alone (western blot): hits 20 μM for 1 h at 37° C.; for DHT-enhanced AR thermal stability at 46° C. (western blot): hits 20 μM, 10 nM DHT
T1 construct: the amount of soluble AR protein in heat shocked C4-2 cell lysates; endogenous in cells; host or cells: C4-2 castration resistant prostate cancer cells
T1 sequence (P10275 1-920 T878A): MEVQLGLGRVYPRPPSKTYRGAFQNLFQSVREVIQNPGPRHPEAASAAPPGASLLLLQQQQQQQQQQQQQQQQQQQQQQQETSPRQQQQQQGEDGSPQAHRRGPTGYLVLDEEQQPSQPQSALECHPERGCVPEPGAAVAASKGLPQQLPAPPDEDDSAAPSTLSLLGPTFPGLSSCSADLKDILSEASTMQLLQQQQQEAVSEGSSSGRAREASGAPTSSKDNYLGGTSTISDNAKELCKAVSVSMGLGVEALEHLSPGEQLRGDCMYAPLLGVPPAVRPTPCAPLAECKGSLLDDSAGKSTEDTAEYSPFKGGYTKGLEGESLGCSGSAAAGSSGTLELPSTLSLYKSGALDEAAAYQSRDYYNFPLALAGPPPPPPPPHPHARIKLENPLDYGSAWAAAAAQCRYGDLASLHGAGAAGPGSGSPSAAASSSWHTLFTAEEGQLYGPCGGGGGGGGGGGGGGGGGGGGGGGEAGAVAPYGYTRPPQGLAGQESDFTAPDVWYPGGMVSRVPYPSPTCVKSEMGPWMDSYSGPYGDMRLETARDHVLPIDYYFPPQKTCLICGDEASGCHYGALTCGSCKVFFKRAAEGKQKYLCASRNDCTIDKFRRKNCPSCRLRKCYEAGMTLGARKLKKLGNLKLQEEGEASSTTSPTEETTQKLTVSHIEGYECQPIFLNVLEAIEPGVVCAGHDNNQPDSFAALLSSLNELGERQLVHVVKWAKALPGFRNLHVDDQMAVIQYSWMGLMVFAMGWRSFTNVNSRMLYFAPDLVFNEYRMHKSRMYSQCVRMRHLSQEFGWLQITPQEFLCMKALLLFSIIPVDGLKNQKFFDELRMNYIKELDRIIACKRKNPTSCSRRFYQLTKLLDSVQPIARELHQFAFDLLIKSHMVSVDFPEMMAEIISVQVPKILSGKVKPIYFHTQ
Description: Western Blotting Cellular Thermal Shift Assays for TIF2 and AR Target Engagement in C4-2 Cells: C4-2 cells were harvested by trypsinization, washed 1× by centrifugation at 270×g for 5 min and resuspension in PBS, counted, centrifugated at 270× g for 5 min and resuspended at 7×10^6 cells per mL in Opti-MEM medium (Gibco, Gaithersburg, MD). 50 μL of C4-2 cell suspension (3.5×10^5 cells) were then transferred to PCR tubes that were placed in a T-100 thermocycler (BioRad, Hercules, CA) and a 2° C. interval temperature step gradient from 37° C. to 53° C. was applied. Cells were maintained at each step of the temperature gradient for 5 min and then tubes were withdrawn and placed on ice. 50 μL of cell lysis buffer, 500 mM NaCl, 1% NP-40, 1× protease inhibitor cocktail in PBS were added to the heat shocked cell suspensions in PCR tubes and placed on ice for an additional 30 min. Cell lysates were then centrifuged at 14,000 RPM (18,800×g) at 4° C. for 15 min and supernatants were transferred to new tubes and protein concentrations were determined in a bicinchoninic acid (BCA) assay. 45 μL of cell lysis supernatants were mixed with 15 μL of 5×SDS-PAGE sample buffer and placed in a heat block at 100° C. for 5 min. The protein constituents of heat shocked C4-2 cell lysis supernatants were separated by SDS-PAGE on 8% separating gels, transferred to nitrocellulose membranes that were blocked for 1 h at room temperature in 5% non-fat milk in TBST, and then probed overnight at 4° C. with a 1:1000 dilution of either rabbit anti-AR (Cell Signaling, Danvers, MA) or rabbit anti-TIF2 (Bethyl Laboratories, Waltham, MA) primary antibodies in TBST containing 5% non-fat milk. Membranes were then washed 3× in TBST buffer for 10 min, then incubated with a 1:10,000 dilution of the goat anti-rabbit IgG HRP conjugated secondary antibody (Invitrogen, Carlsbad, CA) in TBST containing 5% non-fat milk for 1 h at room temperature. Western blots were then washed 3× in TBST buffer and developed with Pierce ECL western blotting substrate. Images of ECL western blots were acquired on an iBright™ 1500 imaging system and quantified using the iBright™ image analysis software.

PC-3 cells = assay: Prostate cancer cell line growth inhibition assay, PC-3; type: cell-based; details: read-out: AR negative PC-3 GI50
Description: Prostate Cancer Cell Line Growth Inhibition Assays: The PC-3, DU-145, LNCaP, C4-2, and 22Rv1 PC cell line growth inhibition assays have been described previously (Fancher et al., Assay Drug Dev Technol. 2016, 14:453-477; Fancher et al., Assay Drug Dev Technol. 2019, 17:364-386). On day 1, each PC cell line was harvested, counted, and seeded into two 384-well assay plates, a time zero (T0) and a time 72 h (T72) plate. […] On day 2, 25 μL of the CellTiter-Glo® (CTG) (Promega Corporation, Madison, WI) detection reagent was dispensed into the wells of the TO assay plate using a Matrix electronic multichannel pipette, and the RLUs were captured on the SpectraMax® M5e (Molecular Devices LLC, Sunnyvale, CA) microtiter plate reader. […] On day 5, 25 μL of the CTG detection reagent was dispensed into the wells of the T72 assay plate using a Matrix electronic multichannel pipette, and the RLU's were captured on the SpectraMax® M5e microtiter plate reader platform.
For the 96-well AR-LBD H^3-DHT radioligand binding assay, eight minimum and maximum plate control wells were utilized to normalize the data. […] To normalize the 72 h compound exposure PC growth inhibition data, the signals from the compound treated wells were processed and expressed as % of the T72 DMSO plate controls. […]

Compound | AR thermal stability at 46° C., compound alone (western blot) (AR) | DHT-enhanced AR thermal stability at 46° C. (western blot) (AR) | GI50 (PC-3 cells; 72 h, listed as 1) | GI50 (PC-3 cells; Homo sapiens, PC-3, 72 h)
Cc1nsc(NC(=O)N2CCC(Sc3ccccc3C)CC2)n1 [Compound S2-6] | did not stabilize AR | blocked DHT-enhanced AR thermal stabilization below DMSO baseline levels; also recorded: inhibition of DHT-enhanced AR thermal stability |  | 
Cc1ccccc1-c1cc(O)c2c(c1)CN(c1nc(C(N)=O)cs1)CCO2 [Compound S1-1] | did not stabilize AR | only partially blocked DHT-enhanced AR stabilization; also recorded: inhibition of DHT-enhanced AR thermal stability | 61.1 µM | 
Cc1c(-c2ccccc2F)[nH]c2ccc(CNC(=O)CCc3cn[nH]c3)cc12 [Compound S3-11] | did not stabilize AR | only partially blocked DHT-enhanced AR stabilization; also recorded: inhibition of DHT-enhanced AR thermal stability |  | 28.4 µM
